# Experimental data taken from PubChem BioAssay (NCI).
#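 Cultured in 96-well plates, cells were exposed to test compound for 48 hours across five concentrations. At the TGI there is no net growth.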
# Columns and labels:
# Assay in all cases: growth of human tumour cells (NCI), 48 h
# MALME-3M melanoma = system: MALME-3M melanoma
# HS 578T breast = system: HS 578T breast
# NCI-H23 lung = system: NCI-H23 lung
# RXF 393 renal = system: RXF 393 renal
# ACHN renal = system: ACHN renal
# UO-31 renal = system: UO-31 renal
# NCI-H460 lung = system: NCI-H460 lung
# HT29 colon = system: HT29 colon
# SR leukemia = system: SR leukemia
# NCI/ADR-RES ovarian = system: NCI/ADR-RES ovarian
# SF-295 CNS = system: SF-295 CNS
# U251 CNS = system: U251 CNS
# NCI-H522 lung = system: NCI-H522 lung
# SK-MEL-5 melanoma = system: SK-MEL-5 melanoma
# MDA-N = system: MDA-N
# HCC-2998 colon = system: HCC-2998 colon
# SK-MEL-28 melanoma = system: SK-MEL-28 melanoma
# A549 NSCLC = system: A549 NSCLC
# SF-539 CNS = system: SF-539 CNS
# T-47D breast = system: T-47D breast
# PC-3 prostate = system: PC-3 prostate
# KM12 colon = system: KM12 colon
# BT-549 breast = system: BT-549 breast
# SW-620 colon = system: SW-620 colon
# A498 renal = system: A498 renal
# SNB-75 CNS = system: SNB-75 CNS
# MCF7 breast = system: MCF7 breast
# SK-MEL-2 melanoma = system: SK-MEL-2 melanoma
# CCRF-CEM leukemia = system: CCRF-CEM leukemia
# HOP-92 NSCLC = system: HOP-92 NSCLC
# UACC-62 melanoma = system: UACC-62 melanoma
# IGROV1 ovarian = system: IGROV1 ovarian
# OVCAR-4 ovarian = system: OVCAR-4 ovarian
# CAKI-1 renal = system: CAKI-1 renal
# RPMI-8226 leukemia = system: RPMI-8226 leukemia
# 786-0 renal = system: 786-0 renal
# MDA-MB-231 breast = system: MDA-MB-231 breast
# NCI-H226 lung = system: NCI-H226 lung
# HCT-15 colon = system: HCT-15 colon
# UACC-257 melanoma = system: UACC-257 melanoma
# SN12C renal = system: SN12C renal
# MOLT-4 leukemia = system: MOLT-4 leukemia
# HCT-116 colon = system: HCT-116 colon
# SNB-19 CNS = system: SNB-19 CNS
# MDA-MB-435 = system: MDA-MB-435
# COLO 205 colon = system: COLO 205 colon
# DU-145 prostate = system: DU-145 prostate
# EKVX NSCLC = system: EKVX NSCLC
# OVCAR-8 ovarian = system: OVCAR-8 ovarian
# LOX IMVI melanoma = system: LOX IMVI melanoma
# TK-10 renal = system: TK-10 renal
# OVCAR-3 ovarian = system: OVCAR-3 ovarian
# SF-268 CNS = system: SF-268 CNS
# OVCAR-5 ovarian = system: OVCAR-5 ovarian
# K-562 leukemia = system: K-562 leukemia
# M14 melanoma = system: M14 melanoma
# HL-60(TB) leukemia = system: HL-60(TB) leukemia
# HOP-62 NSCLC = system: HOP-62 NSCLC
# SK-OV-3 ovarian = system: SK-OV-3 ovarian
compound,measurement,setting,value
NNC(=O)CSc1nc2ccccc2c(=O)n1N,TGI,MALME-3M melanoma,> 100 µM
same,TGI,HS 578T breast,98.8 µM
same,TGI,NCI-H23 lung,> 100 µM
same,TGI,RXF 393 renal,95.5 µM
same,TGI,ACHN renal,99.1 µM
same,TGI,UO-31 renal,> 100 µM
same,TGI,NCI-H460 lung,> 100 µM
same,TGI,HT29 colon,> 100 µM
same,TGI,SR leukemia,> 100 µM
same,TGI,NCI/ADR-RES ovarian,> 100 µM
same,TGI,SF-295 CNS,> 100 µM
same,TGI,U251 CNS,89.3 µM
same,TGI,NCI-H522 lung,> 100 µM
same,TGI,SK-MEL-5 melanoma,> 100 µM
same,TGI,MDA-N,> 100 µM
same,TGI,HCC-2998 colon,> 100 µM
same,TGI,SK-MEL-28 melanoma,> 100 µM
same,TGI,A549 NSCLC,> 100 µM
same,TGI,SF-539 CNS,> 100 µM
same,TGI,T-47D breast,> 100 µM
same,TGI,PC-3 prostate,> 100 µM
same,TGI,KM12 colon,> 100 µM
same,TGI,BT-549 breast,> 100 µM
same,TGI,SW-620 colon,> 100 µM
same,TGI,A498 renal,> 100 µM
same,TGI,SNB-75 CNS,33 µM
same,TGI,MCF7 breast,> 100 µM
same,TGI,SK-MEL-2 melanoma,66.9 µM
same,TGI,CCRF-CEM leukemia,> 100 µM
same,TGI,HOP-92 NSCLC,57.7 µM
same,TGI,UACC-62 melanoma,> 100 µM
same,TGI,IGROV1 ovarian,> 100 µM
same,TGI,OVCAR-4 ovarian,> 100 µM
same,TGI,CAKI-1 renal,> 100 µM
same,TGI,RPMI-8226 leukemia,> 100 µM
same,TGI,786-0 renal,57.4 µM
same,TGI,MDA-MB-231 breast,61.2 µM
same,TGI,NCI-H226 lung,> 100 µM
same,TGI,HCT-15 colon,> 100 µM
same,TGI,UACC-257 melanoma,> 100 µM
same,TGI,SN12C renal,> 100 µM
same,TGI,MOLT-4 leukemia,> 100 µM
same,TGI,HCT-116 colon,> 100 µM
same,TGI,SNB-19 CNS,44.6 µM
same,TGI,MDA-MB-435,> 100 µM
same,TGI,COLO 205 colon,> 100 µM
same,TGI,DU-145 prostate,> 100 µM
same,TGI,EKVX NSCLC,> 100 µM
same,TGI,OVCAR-8 ovarian,> 100 µM
same,TGI,LOX IMVI melanoma,> 100 µM
same,TGI,TK-10 renal,40.9 µM
same,TGI,OVCAR-3 ovarian,> 100 µM
same,TGI,SF-268 CNS,> 100 µM
same,TGI,OVCAR-5 ovarian,> 100 µM
same,TGI,K-562 leukemia,> 100 µM
same,TGI,M14 melanoma,> 100 µM
C=CCOc1ccc(C2(O)c3ccccc3C3=NCCCN32)cc1 (centres undefined),TGI,MALME-3M melanoma,27.4 µM
same,TGI,HS 578T breast,> 100 µM
same,TGI,NCI-H23 lung,> 100 µM
same,TGI,ACHN renal,> 72.2 µM
same,TGI,HL-60(TB) leukemia,> 100 µM
same,TGI,UO-31 renal,> 100 µM
same,TGI,NCI-H460 lung,> 100 µM
same,TGI,HT29 colon,> 100 µM
same,TGI,SR leukemia,> 78.8 µM
same,TGI,HOP-62 NSCLC,> 100 µM
same,TGI,NCI/ADR-RES ovarian,> 100 µM
same,TGI,SF-295 CNS,> 100 µM
same,TGI,U251 CNS,> 100 µM
same,TGI,NCI-H522 lung,> 100 µM
same,TGI,SK-MEL-5 melanoma,45.7 µM
same,TGI,MDA-N,> 63.2 µM
same,TGI,HCC-2998 colon,43.3 µM
same,TGI,SK-MEL-28 melanoma,59.3 µM
same,TGI,A549 NSCLC,> 100 µM
same,TGI,SF-539 CNS,> 100 µM
same,TGI,T-47D breast,> 74.6 µM
same,TGI,PC-3 prostate,> 100 µM
same,TGI,KM12 colon,> 100 µM
same,TGI,BT-549 breast,> 100 µM
same,TGI,SW-620 colon,> 100 µM
same,TGI,A498 renal,> 100 µM
same,TGI,SNB-75 CNS,> 100 µM
same,TGI,SK-OV-3 ovarian,> 100 µM
same,TGI,MCF7 breast,> 100 µM
same,TGI,SK-MEL-2 melanoma,47 µM
same,TGI,CCRF-CEM leukemia,> 100 µM
same,TGI,HOP-92 NSCLC,> 100 µM
same,TGI,UACC-62 melanoma,> 57 µM
same,TGI,IGROV1 ovarian,> 100 µM
same,TGI,OVCAR-4 ovarian,> 100 µM
same,TGI,CAKI-1 renal,> 100 µM
same,TGI,RPMI-8226 leukemia,> 78.5 µM
same,TGI,786-0 renal,> 78.6 µM
same,TGI,MDA-MB-231 breast,> 100 µM
same,TGI,NCI-H226 lung,> 100 µM
same,TGI,HCT-15 colon,> 100 µM
same,TGI,UACC-257 melanoma,52.7 µM
same,TGI,SN12C renal,> 100 µM
same,TGI,MOLT-4 leukemia,> 100 µM
same,TGI,HCT-116 colon,> 100 µM
same,TGI,SNB-19 CNS,> 100 µM
same,TGI,MDA-MB-435,> 85.6 µM
same,TGI,COLO 205 colon,43.5 µM
same,TGI,DU-145 prostate,> 100 µM
same,TGI,EKVX NSCLC,> 100 µM
same,TGI,OVCAR-8 ovarian,> 100 µM
same,TGI,LOX IMVI melanoma,> 100 µM
same,TGI,TK-10 renal,> 100 µM
same,TGI,OVCAR-3 ovarian,> 100 µM
same,TGI,SF-268 CNS,> 100 µM
same,TGI,OVCAR-5 ovarian,> 100 µM
same,TGI,K-562 leukemia,> 87.2 µM
same,TGI,M14 melanoma,35.1 µM
